Like-named read-outs stand apart in the source and are kept apart here.
What was measured:
[1] = biological target: T1, human MAO-A (Homo sapiens, UniProt P21397); assay: MAO-A enzymatic activity, spectrophotometric assay (tyramine, Amplex Red) on membranes of transfected EBNA cells; assay type: biochemical
T1 construct: expressed in transfected cells; host or cells: EBNA cells (transient transfection); cell membranes used
Method: (§1) After transfection, cells were homogenised by means of a Polytron homogenizer in 20 mM Tris HCl buffer, pH 8.0, containing 0.5 mM EGTA and 0.5 mM phenylmethanesulfonyl fluoride. Cell membranes were obtained by centrifugation at 45,000×g and, after two rinsing step with 20 mM Tris HCl buffer, pH 8.0, containing 0.5 mM EGTA, membranes were eventually re-suspended in the above buffer and aliquots stored at −80° C. until use.
(§2) Briefly, membrane aliquots were incubated in 0.1 M potassium phosphate buffer, pH 7.4, for 30 min at 37° C. with or without various concentrations of the compounds. After this period, the enzymatic reaction was started by the addition of the MAO substrate tyramine together with 1 U/ml horse-radish peroxidase (Roche Biochemicals) and 80 μM N-acetyl-3,7,-dihydroxyphenoxazine (Amplex Red, Molecular Probes). The samples were further incubated for 30 min at 37° C. in a final volume of 200 μl and absorbance was then determined at a wavelength of 570 nm using a SpectraMax plate reader (Molecular Devices). Background (non-specific) absorbance was determined in the presence of 10 μM clorgyline for MAO-A or 10 μM L-deprenyl for MAO-B.

[2] = biological target: T2, human MAO-B (Homo sapiens, UniProt P27338); assay: MAO-B enzymatic activity, spectrophotometric assay (tyramine, Amplex Red) on membranes of transfected EBNA cells; assay type: biochemical
T2 construct: expressed in transfected cells; host or cells: EBNA cells (transient transfection); cell membranes used
T2 sequence (P27338 1-520): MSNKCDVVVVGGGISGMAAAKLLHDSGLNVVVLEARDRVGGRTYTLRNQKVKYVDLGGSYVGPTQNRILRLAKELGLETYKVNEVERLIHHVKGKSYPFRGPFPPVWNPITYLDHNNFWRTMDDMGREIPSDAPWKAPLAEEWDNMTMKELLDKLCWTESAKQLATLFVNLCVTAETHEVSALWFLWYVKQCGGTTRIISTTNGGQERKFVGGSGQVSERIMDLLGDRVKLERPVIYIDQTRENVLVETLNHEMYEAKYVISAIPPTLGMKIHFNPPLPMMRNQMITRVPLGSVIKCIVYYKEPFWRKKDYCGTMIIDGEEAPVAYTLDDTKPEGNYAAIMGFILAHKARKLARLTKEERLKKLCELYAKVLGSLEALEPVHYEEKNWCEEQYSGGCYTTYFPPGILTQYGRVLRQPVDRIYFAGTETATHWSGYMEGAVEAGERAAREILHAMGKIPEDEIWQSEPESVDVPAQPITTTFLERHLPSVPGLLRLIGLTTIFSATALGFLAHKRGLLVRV
Method: as §1, with “The cDNA's encoding human MAO-A and MAO-B were transiently transfected into EBNA cells using the procedure described by E.-J. Schlaeger and K. Christensen (Transient Gene Expression in Mammalian Cells Grown in Serum-free Suspension Culture; Cytotechnology, 15: 1-13, 1998). After” for “After”
as §2, with “MAO-A and MAO-B enzymatic activity was assayed in 96-well-plates using a spectrophotometric assay adapted from the method described by M. Zhou and N. Panchuk-Voloshina (A One-Step Fluorometric Method for the Continuous Measurement of Monoamine Oxidase Activity, Analytical Biochemistry, 253: 169174, 1997). Briefly,” for “Briefly,”
IC50 values, that is, the concentration of a test compound according to the invention required to inhibit the MAO-B enzyme activity by 50%, were determined from inhibition curves obtained using nine inhibitor concentrations in duplicate, by fitting data to a four parameter logistic equation using a computer program.

[3] = membranes, 30 min preincubation at 37° C., pH 7.4, substrate tyramine, read-out: IC50 MAO-A

T1 sequence (P21397 whole entry): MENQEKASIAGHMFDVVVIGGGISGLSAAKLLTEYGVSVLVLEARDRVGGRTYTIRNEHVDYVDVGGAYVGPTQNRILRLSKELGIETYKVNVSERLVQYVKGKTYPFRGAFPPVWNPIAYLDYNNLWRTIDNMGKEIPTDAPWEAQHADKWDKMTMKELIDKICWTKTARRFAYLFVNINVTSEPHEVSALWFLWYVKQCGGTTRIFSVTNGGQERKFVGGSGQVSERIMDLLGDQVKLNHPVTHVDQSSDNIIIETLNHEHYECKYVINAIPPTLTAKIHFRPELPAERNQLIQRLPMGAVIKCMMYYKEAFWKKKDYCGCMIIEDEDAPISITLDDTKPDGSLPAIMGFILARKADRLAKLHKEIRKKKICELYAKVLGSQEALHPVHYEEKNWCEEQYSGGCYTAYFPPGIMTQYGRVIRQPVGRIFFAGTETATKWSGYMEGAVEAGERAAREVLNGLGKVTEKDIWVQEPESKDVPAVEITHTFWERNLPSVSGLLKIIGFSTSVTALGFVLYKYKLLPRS

SMILES	IC50 [1, 3] [nM]	IC50 [2] [nM]	IC50 [1] [nM]
CC(C(N)=O)N1CCc2cc(OCc3cccc(F)c3)ccc2C1=O (racemic) [Example 7, 2-[6-(3-Fluoro-benzyloxy)-1-oxo-3,4-dihydro-1H-isoquinolin-2-yl]-propionamide]	> 10000	12	
O=C1NCCc2cc(OCc3cccc(F)c3)ccc21 [Example 1, 6-(3-Fluoro-benzyloxy)-3,4-dihydro-2H-isoquinolin-1-one]	5240	104	
NC(=O)CN1CCc2cc(OCc3cccc(F)c3)ccc2C1=O [Example 6, 2-[6-(3-Fluoro-benzyloxy)-1-oxo-3,4-dihydro-1H-isoquinolin-2-yl]-acetamide]	330	8	
CC(CO)N1CCc2cc(OCc3cccc(F)c3)ccc2C1=O (stereo not shown) [Example 8, 6-(3-Fluoro-benzyloxy)-2-(2-hydroxy-1-methyl-ethyl)-3,4-dihydro-2H-isoquinolin-1-one]	> 10000	74	
N#CCN1CCc2cc(OCc3cccc(F)c3)ccc2C1=O [Example 12, [6-(3-Fluoro-benzyloxy)-1-oxo-3,4-dihydro-1H-isoquinolin-2-yl]-acetonitrile]		154	
COCC(C)N1CCc2cc(OCc3cccc(F)c3)ccc2C1=O (stereo not shown) [Example 14, 6-(3-Fluoro-benzyloxy)-2-(2-methoxy-1-methyl-ethyl)-3,4-dihydro-2H-isoquinolin-1-one]		63	4220
NC(=O)CCN1CCc2cc(OCc3cccc(F)c3)ccc2C1=O [Example 19, 3-[6 (3-Fluoro-benzyloxy)-1-oxo-3,4-dihydro-1H-isoquinolin-2-yl]-propionamide]		392	
C[C@H](C(N)=O)N1CCc2cc(OCc3ccc(F)cc3)ccc2C1=O [Example 20, 2-(R)-[6-(4-Fluoro-benzyloxy)-1-oxo-3,4-dihydro-1H-isoquinolin-2-yl]-propionamide]		12	> 10000
C[C@@H](C(N)=O)N1CCc2cc(OCc3ccc(F)cc3)ccc2C1=O [Example 21, 2(S)-[6-(4-Fluoro-benzyloxy)-1-oxo-3,4-dihydro-1H-isoquinolin-2-yl]-propionamide]		18	> 10000
NC(=O)[C@H](CO)N1CCc2cc(OCc3ccc(F)cc3)ccc2C1=O [Example 22, 2(S)-[6(4-Fluoro-benzyloxy)-1-oxo-3,4-dihydro-1H-isoquinolin-2-yl]-3-hydroxy-propionamide]		20	> 10000
CC(C)(C(N)=O)N1CCc2cc(OCc3ccc(F)cc3)ccc2C1=O [Example 30, 2-[6-(4-Fluoro-benzyloxy)-1-oxo-3,4-dihydro-1H-isoquinolin-2-yl]-isobutyramide]		1130	
